# Measurements from the supplement of paper PMC10307832.
# Compound: Cc1ccc(Nc2nccc(N(C)c3ccc4c(C)n(C)nc4c3)n2)cc1S(N)(=O)=O [Pazopanib] + CS(=O)(=O)N1CCN(Cc2cc3nc(-c4cccc5[nH]ncc45)nc(N4CCOCC4)c3s2)CC1 [Pictilisib] (partner 1 µM)
# Assay: relative viability (nuclei count vs DMSO), 5 days (fraction); higher = more cells survive
# Conditions: first compound 0.01 µM
# Summary of the method: (§1)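 Cells from lung cancer lines were seeded into 1536-well plates and, one day later, dosed by pin tool. Treatments were either a single drug or a fixed dose of an anchor drug with five library-drug doses (not always all listed) in √10 steps. After 5 days, nuclei were stained in a one-step fixation (final 0.05% Triton X-100, 1% formaldehyde, 1 ug/ml Hoechst) and counted on 4× images, and relative viability is the treated-to-vehicle nuclei ratio, as the median of duplicate plates.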
row,Cell Line,relative viability
1,LC-2-ad,0.412
2,NCI-H2170,0.261
3,NCI-H1975,0.263
4,ABC-1,0.635
5,RERF-LC-KJ,0.447

# Same assay, conditions: first compound 0.03162 µM
row,Cell Line,relative viability
1,NCI-H1915,0.972
2,HCC-827,1.17
3,LXF-289,0.784
4,NCI-H23,0.534
5,NCI-H650,0.838
6,NCI-H1651,0.542
7,EPLC-272H,0.335
8,NCI-H1792,0.271
9,NCI-H1355,0.412
10,NCI-H322M,0.564
11,NCI-H1437,0.449
12,NCI-H1755,0.432
13,HCC-15,0.773
14,NCI-H1944,0.346
15,PC-3 [JPC-3],0.707
16,EKVX,0.402
17,LC-2-ad,0.436
18,NCI-H2170,0.299
19,NCI-H1975,0.281
20,ABC-1,0.839
21,RERF-LC-KJ,0.562

# Same assay, conditions: first compound 0.1 µM
row,Cell Line,relative viability
1,NCI-H1915,0.976
2,HCC-827,1.03
3,LXF-289,0.778
4,NCI-H23,0.483
5,NCI-H650,0.92
6,NCI-H1651,0.494
7,EPLC-272H,0.27
8,NCI-H1792,0.276
9,NCI-H1355,0.421
10,NCI-H322M,0.582
11,NCI-H1437,0.441
12,NCI-H1755,0.386
13,HCC-15,0.718
14,NCI-H1944,0.344
15,PC-3 [JPC-3],0.808
16,EKVX,0.415
17,LC-2-ad,0.515
18,NCI-H2170,0.315
19,NCI-H1975,0.316
20,ABC-1,0.82
21,RERF-LC-KJ,0.559

# Same assay, conditions: first compound 0.3162 µM
row,Cell Line,relative viability
1,NCI-H1915,0.971
2,HCC-827,0.946
3,LXF-289,0.735
4,NCI-H23,0.498
5,NCI-H650,0.836
6,NCI-H1651,0.611
7,EPLC-272H,0.35
8,NCI-H1792,0.282
9,NCI-H1355,0.508
10,NCI-H322M,0.571
11,NCI-H1437,0.499
12,NCI-H1755,0.458
13,HCC-15,0.857
14,NCI-H1944,0.39
15,PC-3 [JPC-3],0.73
16,EKVX,0.507
17,LC-2-ad,0.196
18,NCI-H2170,0.354
19,NCI-H1975,0.309
20,ABC-1,0.799
21,RERF-LC-KJ,0.495

# Same assay, conditions: first compound 1 µM
row,Cell Line,relative viability
1,NCI-H1915,0.899
2,HCC-827,1.12
3,LXF-289,0.822
4,NCI-H23,0.711
5,NCI-H650,0.79
6,NCI-H1651,0.684
7,EPLC-272H,0.274
8,NCI-H1792,0.309
9,NCI-H1355,0.638
10,NCI-H322M,0.54
11,NCI-H1437,0.626
12,NCI-H1755,0.446
13,HCC-15,1.06
14,NCI-H1944,0.358
15,PC-3 [JPC-3],0.716
16,EKVX,0.517
17,LC-2-ad,0.527
18,NCI-H2170,0.317
19,NCI-H1975,0.338
20,ABC-1,0.86
21,RERF-LC-KJ,0.487

# Compound: Cc1ccc(Nc2nccc(N(C)c3ccc4c(C)n(C)nc4c3)n2)cc1S(N)(=O)=O [Pazopanib] + NC(=O)Nc1cc(-c2cccc(F)c2)sc1C(=O)N[C@H]1CCCNC1 [AZD7762] (partner 0.2 µM)
# Assay: as above
# Conditions: first compound 0.01 µM
# Summary of the method: as §1
row,Cell Line,relative viability
1,NCI-H1915,0.716
2,HCC-827,0.244
3,LXF-289,1.26
4,NCI-H23,0.223
5,NCI-H650,0.948
6,NCI-H1651,0.438
7,NCI-H1355,0.71
8,NCI-H322M,0.559
